From PubChem BioAssay (NCI)
Values joined by “and” are separate entries in the source; they are usually repeats but may differ in a detail not shown here. Equal values may be shown once.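 1) Cells in 96-well plates. 2) Compound, 48 h, 5 concentrations. 3) Linear interpolation between surrounding doses. 4) Unreached endpoint = highest concentration. GI50: concentration for 50% inhibition of growth. TGI: concentration producing complete growth inhibition.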

How the values were obtained:
Test in all cases: DTP human tumour cell line panel, 48 h
786-0 renal = test system: 786-0 renal
A549 NSCLC = test system: A549 NSCLC
CAKI-1 renal = test system: CAKI-1 renal
HCC-2998 colon = test system: HCC-2998 colon
HT29 colon = test system: HT29 colon
PC-3 prostate = test system: PC-3 prostate
SK-OV-3 ovarian = test system: SK-OV-3 ovarian
SN12C renal = test system: SN12C renal
SR leukemia = test system: SR leukemia
TK-10 renal = test system: TK-10 renal

SMILES	GI50 (786-0 renal) [µM]	TGI (786-0 renal)	GI50 (A549 NSCLC) [µM]	TGI (A549 NSCLC)	GI50 (CAKI-1 renal) [µM]	TGI (CAKI-1 renal)	GI50 (HCC-2998 colon) [µM]	TGI (HCC-2998 colon)	GI50 (HT29 colon) [µM]	TGI (HT29 colon)	TGI (PC-3 prostate)	TGI (SK-OV-3 ovarian)	GI50 (SN12C renal) [µM]	TGI (SN12C renal)	GI50 (SR leukemia)	GI50 (TK-10 renal)	TGI (TK-10 renal)	GI50 (PC-3 prostate)	GI50 (SK-OV-3 ovarian) [µM]	TGI (SR leukemia)
Nc1nc(N)c2nc(CNc3ccc(C(=O)CC(CCC(=O)O)C(=O)O)cc3)cnc2n1 (centres undefined)	0.0566	> 100 µM	0.153	> 100 µM	0.0412	> 100 µM	0.179	> 96.2 µM	0.0417	> 100 µM	> 100 µM	> 100 µM	0.18	> 100 µM	< 0.019 µM	0.385 µM	> 100 µM			
COc1ccc(-c2coc3ncnc(N)c23)cc1	> 25	> 25 µM	> 25	> 25 µM	> 25	> 25 µM	> 25	> 25 µM	> 25	> 25 µM	> 25 µM	> 25 µM	> 25	> 25 µM	> 25 µM	> 25 µM	> 25 µM	> 25 µM	> 25	> 25 µM
NC1=NC(=O)N2CC12 (centres undefined)	160	> 100 µM and 506 µM	890	> 100 µM and 3450 µM	35.1	> 100 µM and 118 µM	520	> 100 µM and 1250 µM	400	> 100 µM and 3130 µM	1130 µM	> 100 µM and 991 µM		> 100 µM and 349 µM	10.8 µM and 14.6 µM	65.1 µM and 144 µM	> 100 µM and 389 µM	86.1 µM and 321 µM	369	> 100 µM and 34.8 µM and 73.9 µM
COc1cc(N2CCC(N3CCN(C)CC3)CC2)ccc1Nc1ncc(Cl)c(Nc2ccccc2P(C)(C)=O)n1	1.12	7.59 µM	1.21	14.1 µM	1.99	9.58 µM	3.99	> 100 µM	0.204	4.81 µM	> 100 µM	5 µM	1.03	> 100 µM		0.296 µM	3.09 µM	4.19 µM	0.992	> 33.6 µM
O=S(=O)(/C=C/C=C/S(=O)(=O)c1ccccc1)c1ccccc1	0.956	1.1 µM and 2.22 µM	3.97	15.2 µM	1.04	2.54 µM and 2.25 µM		25.1 µM	1.4	2.69 µM and 2.85 µM	7.38 µM and 3.98 µM	19.9 µM		4.16 µM		1.35 µM	2.95 µM and 2.69 µM	1.9 µM		2.29 µM and 0.934 µM
Cc1cc(Cl)ccc1Nc1sc(C(=O)c2cc3cc(Cl)ccc3o2)c(N)c1C#N		28.6 µM		> 54.7 µM		> 100 µM		7.24 µM		> 100 µM	> 100 µM	57 µM		> 100 µM			> 73.1 µM			> 100 µM
COc1ccc(C(=O)/C=C/c2cc3ccccc3[nH]c2=O)cc1		> 37.4 µM	20	> 100 µM	14.9	28.2 µM	17.3	31.3 µM	19.3	> 80.5 µM	> 100 µM	> 91.6 µM	21.1	> 100 µM	17.3 µM	20.9 µM	> 100 µM	> 59.7 µM	22.7	> 100 µM
COc1cccc(-c2nn(-c3ccccc3)cc2-c2ccnc(NCCNS(=O)(=O)c3ccc(C(F)(F)F)cc3)c2)c1	2.63	21.4 µM	3.71	32 µM	3.64	> 100 µM	3.36	24.8 µM	2.32	5.75 µM	26.7 µM	11.1 µM	2.27	5.39 µM	1.77 µM	2.39 µM	9.88 µM	2.86 µM	3	4.6 µM
CCCCCCN(CCCCCC)C(=N)c1ccnc2ccccc12	2.82	12.5 µM	11.9	25.9 µM	3.18	15 µM	1.78	3.54 µM	0.835	7.88 µM	20.2 µM	24.7 µM	7	21.6 µM	1.74 µM	2.15 µM	9.67 µM	5.81 µM	12.3	5.34 µM
O=c1ncc(-c2ccc(C(F)(F)F)cc2)c(NC2CCCCCC2)[nH]1	23.6	52.4 µM	25.5	> 100 µM	18.7	48.4 µM	20	35.9 µM	21.5	39 µM	54.9 µM	64.3 µM	16.2	33 µM	16.3 µM	35.7 µM	73.9 µM	19 µM	27.3	38.3 µM
COc1ccc(OC)c(/C=C/c2nnc(Nc3ccc(Cl)cc3)o2)c1	2.67	7.6 µM	3.67	17.8 µM	6.02	> 100 µM	> 100	> 100 µM	9.44	28.3 µM	76 µM	7.85 µM	4.21	> 100 µM	48.2 µM	7.4 µM	83.2 µM	13.3 µM	2.79	> 100 µM
CCN(Cc1ccc(F)cc1)c1ccc(CO)c(Cl)c1	4.6	23.3 µM	1.16	22.6 µM	0.487	8.79 µM	10.3	28.3 µM	3.02	16.1 µM	49.4 µM	25.2 µM	12.1	33.4 µM	15.3 µM	0.0366 µM	0.181 µM	14.3 µM	3.86	51.5 µM
CS(=O)(=O)CCNCc1ccc(-c2ccc3ncnc(Nc4ccc(OCc5ccccc5)c(C(F)(F)F)c4)c3c2)o1	5.32	11 µM	8.23	> 25 µM	7.09	> 25 µM	4.35	8.25 µM	4.95	9.05 µM	> 21 µM	> 22.1 µM	5.22	12.3 µM	7.47 µM	7.61 µM	22.7 µM	6.88 µM	7.19	19.9 µM
COc1cc2[nH]c(C(=O)c3cc(OC)c(OC)c(OC)c3)c(N)c2cc1C#CCO	0.373	> 100 µM	0.969	> 100 µM	0.537	> 100 µM	0.775	> 100 µM	0.353	> 100 µM	> 100 µM	> 100 µM	1.4	98.3 µM	0.284 µM	44.1 µM	> 100 µM	0.277 µM	0.482	19.8 µM
O=C1C2CC3C(CC2C(=O)[N]1[Sn]([c]1ccccc1)([c]1ccccc1)[c]1ccccc1)C1(Cl)C(Cl)=C(Cl)C3(Cl)C1(Cl)Cl (centres undefined)	0.157	0.336 µM	0.14	0.347 µM	0.12	0.275 µM	0.122	0.281 µM			0.315 µM	0.353 µM	0.17	0.448 µM	0.102 µM	0.145 µM	0.288 µM	0.0958 µM	0.137	0.532 µM
CC1=CC2=C(OCO1)C(=O)c1ccccc1C2=O		> 56.9 µM		38.9 µM		> 94 µM		> 100 µM		16.8 µM	> 100 µM	48.9 µM		11.4 µM			> 81.3 µM			41.7 µM
Nc1ncc(-c2cnn(C3CCNCC3)c2)cc1-c1nc2ccccc2o1	1.4	2.92 µM	1.2	4.27 µM	0.532	2.85 µM	1.18	3.09 µM	0.441	2.63 µM	6.68 µM	5.78 µM	0.478	4.41 µM	0.266 µM	0.924 µM	4.04 µM	1.59 µM	1.11	1.09 µM
CCOC(=O)[C@H](CSSc1ncnc2cc[nH]c12)NC(=O)[C@@H](C)c1ccc2cc(OC)ccc2c1	0.347	> 100 µM	6.36	> 100 µM	0.378	> 100 µM	1.29	> 100 µM	1.38	> 100 µM	> 100 µM	> 100 µM	3.98	> 100 µM	0.385 µM	0.265 µM	> 59.6 µM	2.78 µM	2.77	> 100 µM
COc1ccc(-c2cc(-c3ccc(Nc4nc(Nc5ccc(Cl)cc5)nc(Nc5ccc(Cl)cc5)n4)cc3)no2)cc1	5.42	25.5 µM	16.4	84.7 µM	15.5	62.3 µM	2.37	8.25 µM	15.1	59.9 µM	25.5 µM	79.4 µM	20.2	> 100 µM	2.06 µM	20.4 µM	72.7 µM	3.65 µM	25.8	6.5 µM
COc1cc2c(c(OC)c1OC)-c1ccc(OC)c(=O)cc1[C@@H](NC(=O)CCl)CC2	< 0.01	1.7 µM	< 0.0141	25.6 µM	0.0386	21.2 µM	< 0.01	22.3 µM	< 0.01	10.1 µM	30.9 µM		< 0.0142	> 51.5 µM	< 0.01 µM	0.0647 µM	14.2 µM	< 0.01 µM	< 0.01	> 95.7 µM
COc1ccc(C(=S)c2cc(OC)c(OC)c(OC)c2)cc1OC(=O)CCl	0.183	> 100 µM	0.0849	> 100 µM	0.0449	52.1 µM	0.0418	> 100 µM	1.99	> 100 µM	> 100 µM	> 100 µM	0.0241	> 100 µM	< 0.01 µM	32.6 µM	> 100 µM	< 0.0172 µM	0.0684	> 100 µM
CCCCCCCCCCCCCCCCC1=CC(=O)C=C(OC)C1=O		> 100 µM		> 100 µM		> 100 µM		> 100 µM		> 100 µM	> 100 µM	> 100 µM		> 100 µM			> 100 µM			92.7 µM
O=c1oc2ccc(Cl)cc2c(=O)n1-c1ccc(Cl)cc1F	1.76	4.8 µM	0.998	> 31.6 µM	0.271	1.67 µM	2.36	8.09 µM	3.33	> 33.5 µM	5.04 µM		0.431	3.78 µM	0.462 µM	1.59 µM	17.7 µM	0.812 µM	0.501	
O=C(OC(C(=O)O)C(OC(=O)c1ccccc1)C(=O)O)c1ccccc1 (centres undefined) (tested in a mixture with another compound)		> 100 µM		> 100 µM		> 100 µM and 52.2 µM		> 100 µM		> 100 µM	33.5 µM	> 100 µM		> 100 µM			> 100 µM			> 100 µM
C=C(C)C(=O)NC(N)=NC#N	30	140 µM		307 µM		44.7 µM and 82.9 µM		261 µM	102	248 µM	293 µM	308 µM	72.1	199 µM		33 µM	98.6 µM and 126 µM			87.9 µM and 132 µM
N=c1nc(N)c2cc3c(N)nc(=N)c3cc12		56.6 µM		> 100 µM		41.6 µM		> 100 µM		> 100 µM	> 100 µM	72.5 µM		23.5 µM			57.2 µM			56.5 µM
CC1(C)SC2C(C(=O)O)N=C(Cc3ccccc3)N2C1C(=O)O (centres undefined)		42.1 µM		> 100 µM		> 100 µM		56.9 µM		29 µM	> 100 µM	> 100 µM		> 100 µM			40.5 µM			> 100 µM
CN1CCN(C(=O)c2ccc(NC(=O)Nc3ccc(N(C)c4ccnc(Nc5ccc(CS(C)(=O)=O)cc5)n4)cc3)cc2)CC1	> 25	> 25 µM	> 23.3	> 25 µM	> 25	> 25 µM	> 25	> 25 µM	11.4	> 25 µM	> 25 µM	> 25 µM	9.42	> 25 µM	> 12.7 µM	> 25 µM	> 25 µM	9.09 µM	> 25	> 25 µM
